{"source": "patent US9856304B2", "about": "“Peptide and application thereof” (Saitama Medical University, priority 2013, dated 2018)", "key": {"[1]": {"tested_on": "human iPS cells (253G1 cells)", "test": "Differentiation induction of human iPS cells into pancreatic hormone-producing cells (1), quantitative RT-PCR", "format": "cell-based", "details": "3 nM betagenin in step (D2), 11 days, vs DMSO control, Day 10 cells taken as 1, FIG. 2", "from_the_text": "As human iPS cells, used were 253G1 cells purchased from the cell bank at RIKEN, TIG3/KOSM cells provided by Dr. Mitani at Saitama Medical University, 200-9 cells, a clone in which a reporter gene is introduced into TIG3/KOSM cells. TIG3/KOSM cells were established at The National Institute of Advanced Industrial Science and Technology by introducing 4 factors (the OCT gene, the KLF gene, the SOX gene, the MYC gene) into TIG-3 cells using Sendai virus (Nishimura, K. et al., J. Biol. Chem., 286, pp. 4760-4771 (2011)).\nThese cells were cultured/maintained in an ES cell culture medium (DMEM/ham F12, 20% KSR, nonessential amino acid, 2 mM L-glutamine, 0.1 mM 2-mercaptoethanol, 5.2 mM NaOH) with added 4 ng/mL FGF-2 (Global Stem) and penicillin/streptomycin (Nacalai Tesque, Inc.) along with SNL76/7 cells (DS Pharma Biomedical) treated with mitomycin-C. […]\nThe gene expression of insulin was confirmed by quantitative RT-PCR for the cells (n=2 for each of the betagenin addition group and the control group) obtained from 253G1 cells via the above steps (A2) to (D2). Specifically, total RNA was first extracted from the cells using a SV Total RNA Isolation System (Promega), and reverse transcription reactions were performed with BioScript™ transcriptase (Bioline), and then quantitative PCR analysis was performed using SYBR™ Green PCR Master Mix (Applied Biosystems). […]"}, "[2]": {"tested_on": "MIN6 cells (pancreatic β cell line)", "test": "EdU cell proliferation assay, growth promotion of pancreatic β cells (2), versus culture supernatants", "format": "cell-based", "details": "betagenin 1 nM, compared with IBCAP culture supernatant and Mock culture supernatant (0.5 μL/well), Mock taken as 1.0, FIG. 4", "description": "MIN6 cells provided by Dr. Miyazaki at Osaka University were used as a pancreatic β cell line. MIN6 cells were maintained in a DMEM culture medium with added 15% (v/v) of FBS.\nA DMSO solution was prepared so that the concentration of chemically synthesized betagenin was 97% of purity, as a pancreatic hormone-producing cell growth-promoting agent.\nFirst, HEK293T cells passaged in a DMEM culture medium with added 5% FBS and antibiotics (penicillin 100 U/mL, streptomycin […]) were plated on a 10 cm dish at 1×10^6 cells. On the next day, HEK293T cells were transfected with an expression vector (pCAGGS-IBCAP) constructed by ligating the gene encoding the IBCAP (=Betagenin) set forth in SEQ ID NO: 2 (which is corresponds to human TM4SF20, and hereinafter referred to “IBCAP.”) using FuGEN6 (Roche) to overexpression of IBCAP. The culture medium was replaced with an Opti-MEM culture medium 24 hours after that, and a culture supernatant was then collected another 24 hours after that, which was then used as an IBCAP culture supernatant for the subsequent experiments. […]\nThe incorporated EdU was visualized as red fluorescence using Alexa Flour™ 594, and observed with a fluorescence microscope (Carl Zeiss)."}}}
{"substance": "betagenin: chemically synthesized peptide of SEQ ID NO: 1, fragment of human TM4SF20 from Position 170 to Position 229 (WRASSFHFDSEENKHRLIHFSVFLGLLLVGILEVLFGLSQIVIGFLGCLCGVSKRRSQIV; Peptide Sequence betagenin; listed as Homo sapiens)", "values": [{"measurement": "amount of insulin expression (relative)", "setting": "[1]", "result": "increased"}, {"measurement": "relative EdU fluorescence intensity", "setting": "[2]", "result": "significantly increased"}]}
